Measured values published in US7713994B2 (Wyeth LLC, priority 2005, dated 2010).
Like-named read-outs stand apart in the source and are kept apart here.

Experiments:
cyclin D1/cdk 4 enzyme = biological target: T1, cyclin D1/cdk 4 enzyme (Homo sapiens, UniProt P11802); test: CDK4 ELISA kinase assay (phospho-Rb ser 795 detection); type: biochemical
T1 construct: made in house; host or cells: Sf9 insect cells, recombinant baculovirus
In short: (§1)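 GST-Rb C-terminal fragment coated on wells; kinase reaction: 200 μM ATP, 0.5 mg/ml BSA, HEPES pH 7.5, 10 mM MgCl2, baculovirus/Sf9 cyclin-CDK, 30° C, 1 h. Readout anti-phospho-Rb Ser795, HRP, TMB, A450. Test compound 10 ug/ml final.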

cyclin E/CDK2 enzyme = biological target: T2, cyclin E/CDK2 enzyme (Homo sapiens, UniProt P24941); test: CDK2 ELISA kinase assay (phospho-Rb ser 795 detection); type: biochemical
T2 construct: made in house; host or cells: Sf9 insect cells, recombinant baculovirus
In short: as §1

cyclin B/CDK1 enzyme = biological target: T3, cyclin B/CDK1 enzyme (Homo sapiens, UniProt P06493); test: CDK1 ELISA kinase assay (phospho-Rb ser 795 detection); type: biochemical
T3 construct: purchased New England BioLabs; host or cells: Sf9 insect cells, recombinant baculovirus
In short: as §1

BT474 = test: Cytotoxicity assay (SRB), BT474; type: cell-based
In short: (§2)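 Seeding: BT474 12000, HCT-116 4000, LoVo 6000, MCF-7 6000 cells/well; overnight attachment, 37 °C, 7% CO2. Drug exposure 3 d (BT474 6 d), RPMI 1640 + 5% FBS. Readout: TCA fix, 0.4% SRB, Tris solubilisation, A540.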

HCT-116 = test: Cytotoxicity assay (SRB), HCT-116; type: cell-based; conditions: Homo sapiens, HCT-116, 72 h, HCT116 cells, SRB, read-out: In Vitro Cellular Activity IC50 HCT116
In short: as §2

LoVo = test: Cytotoxicity assay (SRB), LoVo; type: cell-based; conditions: Homo sapiens, LoVo, 72 h, LoVo cells, SRB, read-out: In Vitro Cellular Activity IC50 LOVO
In short: as §2

MCF-7 = test: Cytotoxicity assay (SRB), MCF-7; type: cell-based; conditions: Homo sapiens, MCF7, 72 h, MCF-7 cells, SRB, read-out: In Vitro Cellular Activity IC50 MCF-7
In short: as §2

[1] = In Vitro Enzyme Assays, 200 μM ATP, read-out: CDK4 IC50
[2] = In Vitro Enzyme Assays, read-out: CDK2 IC50
[3] = In Vitro Enzyme Assays, read-out: CDK1 IC50
[4] = Homo sapiens, BT-474, 144 h, BT474 cells, SRB, 6 days; read-out: In Vitro Cellular Activity IC50 BT474
[5] = In Vitro Enzyme Assay, cyclin D1/cdk 4, read-out: CDK4 IC50
[6] = In Vitro Enzyme Assay, cyclin E/CDK2, read-out: CDK2 IC50
[7] = In Vitro Enzyme Assay, cyclin B/CDK1, read-out: CDK1 IC50
[8] = Homo sapiens, BT-474, 144 h, BT474 cells, 6 days, SRB; read-out: In Vitro Cellular Activity IC50 BT474

T1 sequence (P11802 whole entry, species assumed): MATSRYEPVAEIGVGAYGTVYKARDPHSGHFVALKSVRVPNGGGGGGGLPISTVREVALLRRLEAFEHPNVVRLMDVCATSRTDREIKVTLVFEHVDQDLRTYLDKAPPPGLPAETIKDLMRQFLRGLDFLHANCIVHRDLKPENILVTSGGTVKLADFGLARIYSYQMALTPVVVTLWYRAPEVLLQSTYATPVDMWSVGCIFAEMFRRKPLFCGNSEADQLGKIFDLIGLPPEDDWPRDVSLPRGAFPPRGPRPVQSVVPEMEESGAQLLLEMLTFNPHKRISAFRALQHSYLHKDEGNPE
T1 sequence (P24385 whole entry partner, species assumed): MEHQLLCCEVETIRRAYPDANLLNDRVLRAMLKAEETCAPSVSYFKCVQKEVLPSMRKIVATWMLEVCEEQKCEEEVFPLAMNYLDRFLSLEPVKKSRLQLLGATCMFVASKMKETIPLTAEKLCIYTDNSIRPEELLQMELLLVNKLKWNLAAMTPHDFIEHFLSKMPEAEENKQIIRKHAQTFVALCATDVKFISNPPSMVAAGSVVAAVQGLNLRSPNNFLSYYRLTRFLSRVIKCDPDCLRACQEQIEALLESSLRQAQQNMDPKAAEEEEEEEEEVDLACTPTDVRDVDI
T3 sequence (P06493 whole entry): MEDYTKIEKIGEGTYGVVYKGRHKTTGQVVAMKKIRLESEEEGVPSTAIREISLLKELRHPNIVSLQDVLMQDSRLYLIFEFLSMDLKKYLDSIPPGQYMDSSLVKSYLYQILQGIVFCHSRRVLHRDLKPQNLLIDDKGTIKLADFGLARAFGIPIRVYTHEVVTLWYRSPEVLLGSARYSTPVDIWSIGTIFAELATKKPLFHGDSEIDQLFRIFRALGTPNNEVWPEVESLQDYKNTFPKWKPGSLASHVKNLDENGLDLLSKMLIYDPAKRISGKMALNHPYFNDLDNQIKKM
T3 sequence (P14635 whole entry partner): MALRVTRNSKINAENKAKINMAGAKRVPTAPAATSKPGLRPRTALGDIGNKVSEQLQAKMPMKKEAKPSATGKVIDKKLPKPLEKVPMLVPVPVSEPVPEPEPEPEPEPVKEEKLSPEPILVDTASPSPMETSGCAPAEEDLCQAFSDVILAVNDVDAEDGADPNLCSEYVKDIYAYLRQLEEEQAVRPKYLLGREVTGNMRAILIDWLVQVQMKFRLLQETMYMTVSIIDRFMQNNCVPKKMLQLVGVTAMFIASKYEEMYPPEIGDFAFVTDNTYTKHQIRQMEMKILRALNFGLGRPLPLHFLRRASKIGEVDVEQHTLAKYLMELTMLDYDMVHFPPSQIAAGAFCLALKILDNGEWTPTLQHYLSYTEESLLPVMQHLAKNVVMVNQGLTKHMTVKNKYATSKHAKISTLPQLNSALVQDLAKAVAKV

IC50 (cyclin D1/cdk 4 enzyme; [1]) [µM]	IC50 (cyclin E/CDK2 enzyme; [2]) [µM]	IC50 (cyclin B/CDK1 enzyme; [3]) [µM]	IC50 (cyclin D1/cdk 4 enzyme; [5]) [µM]	IC50 (cyclin E/CDK2 enzyme; [6]) [µM]	IC50 (cyclin B/CDK1 enzyme; [7]) [µM]	Compound	IC50 (BT474; [4]) [µM]	IC50 (HCT-116; three days) [µM]	IC50 (LoVo; three days) [µM]	IC50 (MCF-7; three days) [µM]	IC50 (BT474; [8]) [µM]	IC50 (HCT-116; 3 days) [µM]	IC50 (LoVo; 3 days) [µM]	IC50 (MCF-7; 3 days) [µM]
0.19	> 50	> 50	–	–	–	CN1CCN(CCCNC=C2C(=O)NC(=O)c3ccc(-n4cccc4)cc32)CC1 [Example 279, 4-{[3-(4-Methyl-piperazin-1-yl)-propylamino]-methylene}-6-pyrrol-1-yl-4H-isoquinoline-1,3-dione]	6	10	11	5.3	–	–	–	–
> 50	3.6	> 50	–	–	–	CCC(=O)Nc1ccc(CN/C=C2\C(=O)NC(=O)c3ccc(Br)cc32)cc1 [Example 321]	0.84	1.2	4.4	10	–	–	–	–
–	–	–	0.05	> 50	> 50	O=C1NC(=O)c2ccc(-c3ccoc3)cc2/C1=C/Nc1ccc(CN2CCC(CCO)CC2)cc1 [Example 491, (4Z)-6-(3-Furyl)-4-{[(4-{[4-(2-hydroxyethyl)piperidin-1-yl]methyl}phenyl)amino]methylene}isoquinoline-1,3(2H,4H)-dione]	–	–	–	–	1.2	3.5	2.7	1
0.6	> 50	> 50	–	–	–	CC(C)N1CCN(c2ccc(N/C=C3\C(=O)NC(=O)c4ccc(I)cc43)cc2)CC1 [Example 386, (4Z)-6-Iodo-4-({[4-(4-isopropylpiperazin-1-yl)phenyl]amino}methylene)isoquinoline-1,3(2H,4H)-dione]	7	2.6	6.5	2.2	–	–	–	–
3	> 50	> 50	–	–	–	CN(C)C(=O)C1CCN(c2ccc(N/C=C3\C(=O)NC(=O)c4ccc(I)cc43)cc2)CC1 [Example 429, 1-(4-{[(Z)-(6-Iodo-1,3-dioxo-2,3-dihydroisoquinolin-4(1H)-ylidene)methyl]amino}phenyl)-N,N-dimethylpiperidine-4-carboxamide]	–	–	–	–	11.7	21	21.1	> 50
0.48	> 50	> 50	–	–	–	CN(C)CCOc1ccc(N/C=C2\C(=O)NC(=O)c3ccc(Br)cc32)cc1 [Example 258, (4Z)-6-Bromo-4-[({4-[2-(dimethylamino)ethoxy]phenyl}amino)methylene]isoquinoline-1,3(2H,4H)-dione]	8.3	3.5	5.3	6.7	–	–	–	–
0.06	1.5	6.3	–	–	–	Nc1cnc(CN/C=C2\C(=O)NC(=O)c3ccc(I)cc32)cc1O [Example 424, 4-{[(5-Amino-4-hydroxy-pyridin-2-ylmethyl)-amino]-methylene}-6-iodo-4H-isoquinoline-1,3-dione]	–	–	–	–	12.7	> 50	> 50	> 50
–	–	–	0.24	13.8	> 50	CC(=O)c1cccc(-c2ccc3c(c2)C(=CNCc2ccc(O)c(O)c2)C(=O)NC3=O)c1 [Example 776, 6-(3-Acetyl-phenyl)-4-[(3,4-dihydroxy-benzylamino)-methylene]-4H-isoquinoline-1,3-dione]	–	–	–	–	17.2	15.2	10.3	11.2
2.6	> 50	> 50	–	–	–	CCN(CC)CCCCN/C=C1\C(=O)NC(=O)c2ccc(Br)cc21 [Example 308, (Z)-6-Bromo-4-((4-(diethylamino)butylamino)methylene)isoquinoline-1,3(2H,4H)-dione]	23	21	16	23	–	–	–	–
0.19	> 50	> 50	–	–	–	O=C1NC(=O)c2ccc(-n3cccc3)cc2/C1=C/Nc1ccc(CN2CCCC2)cc1 [Example 72]	4.1	3.4	3.4	2.6	–	–	–	–
